Like-named read-outs stand apart in the source and are kept apart here.
Columns and labels:
T. gondii-infected HFF = experiment: TMRE uptake assay (mitochondrial membrane potential), T. gondii-infected HFF; format: cell-based, Toxoplasma gondii Me49 in human HFF; conditions: 0.5 μM, 3.5 h
Protocol: (§1) 5 × 10^5 HFF were seeded into T25 culture flasks in DMEM complete medium and maintained in culture for 72 h to reach ⁓80% confluency. HFF monolayers were left either non-infected or were infected with 2 × 10^5 T. gondii Me49 tachyzoites. After another 48 h, the medium was removed from infected and non-infected T25 flasks and was replaced either by medium containing 0.5 μM RU-SDX, or in the case of non-treated controls, medium containing 0.05% DMSO. As positive controls, the two mitochondrial uncouplers FCCP and CCCP were applied at a concentration of 80 and 50 μM, respectively. PYR was applied at 0.5 μM as a control drug not affecting the MMP, and RU-adenine, used as a conjugate shown earlier to impact on the mitochondrial ultrastructure in T. gondii ([Anghel et al., 2021]; [Desiatkina et al., 2022b]), was also tested at 0.5 μM ([Anghel et al., 2021]; [Desiatkina et al., 2022b]). […] Fluorescence was measured using a Hidex Sense microplate reader instrument ([…]) with the excitation wavelength 544/20 nm and emitted light collected at 590/20 nm. Value from wells belonging to the same experimental condition were summed and the mean TMRE uptake in each condition was calculated from three biological replicates.

Non-infected HFF = experiment: TMRE uptake assay (mitochondrial membrane potential), non-infected HFF; format: cell-based, human; conditions: 0.5 μM, 3.5 h
Protocol: as §1

[1] = test system: T. gondii β-gal tachyzoites; conditions: 2021, cited from earlier work
[2] = HFF host cell cytotoxicity, Alamar blue viability assay; format: cell-based, human; conditions: human, uninfected HFF cells (confluent monolayer), read-out: viability (% of control ± SD)
Protocol: (§2) To determine cytotoxicity of compounds on host cells, HFF were grown to confluency in 96 well plates and were treated with different concentrations of the drugs solubilized in medium during 72 h at 37 °C/5% CO2, or were treated with the corresponding concentration of DMSO only ([Desiatkina et al., 2020]; [Holzer et al., 2023]; [Păunescu et al., 2021]). The Alamar blue viability assay was used as previously described ([Desiatkina et al., 2020], [2021], [2022a], [2022b]; [Holzer et al., 2023]; [Păunescu et al., 2021]). In short, resazurin was added to each well at 0.01 mg/ml, and subsequently fluorescence of the produced resorufin was measured at excitation wavelength 544/20 nm and emission wavelength 590/20 nm using a Hidex Sense microplate reader (Hidex, Turku, Finland).

[3] = test system: T. gondii β-gal tachyzoites; experiment: T. gondii β-Gal tachyzoite proliferation in HFF monolayers (β-galactosidase fluorometric assay); format: cell-based, Toxoplasma gondii
Protocol: Effects of drugs on the proliferative capacity of T. gondii tachyzoites were investigated using a transgenic T. gondii RH strain constitutively expressing β-Galactosidase (T. gondii β-Gal ([Dc et al., 1997]);). Assays were carried out in 96 well plates in the presence or absence of the different compounds. For the quantification of β-Galactosidase activity, a fluorometric assay was applied as previously described ([Desiatkina et al., 2021]; [Păunescu et al., 2021]).

HFF = HFF host cell cytotoxicity, Alamar blue viability assay; format: cell-based, human; conditions: 72 h, uninfected HFF
Protocol: as §2

## CCc1nc(N)nc(N)c1-c1ccc(Cl)cc1 [PYR, Pyrimethamine, reference compound]
T. gondii-infected HFF
  TMRE fluorescence intensity / TMRE uptake (percentage of non-treated control = 100%): 106%
Non-infected HFF
  TMRE fluorescence intensity / TMRE uptake (percentage of non-treated control = 100%): 99%

## COc1ncnc(NS(=O)(=O)c2ccc(N)cc2)c1OC [SDX, Sulfadoxine]
[1]; 1 μM, ref Desiatkina et al.
  proliferation (% of control ± SD): ^b83 ± 2%
[1]; 1.1 μM, ref Desiatkina et al.
  proliferation (% of control ± SD): ^b^, ^∗111 ± 3%
[2]; 2.5 μM
  viability at 72 h, 2.5 µM: 118 ± 6%
[2]; 5 μM
  viability at 72 h, 5 µM: 106 ± 9%
[2]; 10 μM
  viability at 72 h, 10 µM: 93 ± 5%
[3]; Toxoplasma gondii, 1.25 μM, read-out: proliferation (% of control ± SD)
  activity at 1.25 µM: 127%
[3]; Toxoplasma gondii, 2.5 μM, read-out: proliferation (% of control ± SD)
  activity at 2.5 µM: 113%
[3]; Toxoplasma gondii, 5 μM, read-out: proliferation (% of control ± SD)
  activity at 5 µM: 112%

## CC(C)(C)c1ccc(C[S-])cc1.CC(C)(C)c1ccc(C[S-])cc1.Cc1ccc(C(C)C)cc1.Cc1ccc(C(C)C)cc1.O=C(O)Cc1ccc([S-])cc1.[Cl-].[Ru+2].[Ru+2] [RU]
[1]; 1 μM, ref Păunescu et al.
  proliferation (% of control ± SD): ^a110 ± 2%
[1]; 1.1 μM, ref Păunescu et al.
  proliferation (% of control ± SD): ^a114 ± 2%
HFF; 2.5 μM
  viability (% of control ± SD): 100 ± 10%
HFF; 5 μM
  viability (% of control ± SD): 70 ± 10%
HFF; 10 μM
  viability (% of control ± SD): 0 ± 0%
[3]; 1.25 μM
  proliferation (% of control ± SD): ^∗64 ± 10%
[3]; 2.5 μM
  proliferation (% of control ± SD): ^∗∗∗12 ± 2%
[3]; 5 μM
  proliferation (% of control ± SD): ^∗∗∗0 ± 0%

From paper PMC11087982, “In vitro and in vivo activities of a trithiolato-diRuthenium complex conjugated with sulfadoxine against the apicomplexan parasite Toxoplasma gondii” (International Journal for Parasitology: Drugs and Drug …, 2024)
